# Measurements published in PMC5676566 (Nature chemical biology, 2017).
# Target: BG505 Env (pseudovirus) (Human immunodeficiency virus 1, UniProt Q2N0S5)
# Test: pseudovirus neutralization, TZM-bl cells, luciferase
# Format: cell-based
# Settings: 1% DMSO; separate panel assay printed too (Supplementary Table 1)
compound,measurement,value
COc1ccnc2[nH]cc(C(=O)C(=O)N3CCN(C(=O)c4ccccc4)C[C@H]3C)c12 [BMS-378806],IC50,1.19 µM
